System: hepatocytes
Test: RNA-seq of hepatocytes treated with Phase III failure compounds
Method: RNA-seq was performed to determine the effects of the compounds on hepatocytes.
Significance was determined by the criteria of FPKM≥0.5, a log 2(fold-change)≥1, and a […].

SMILES: CCC(CC)[C@H](NC(C)=O)[C@@H]1[C@H](O)[C@@H](C(=O)O)C[C@H]1NC(=N)N.O.O.O [peramivir (trihydrate), peramivir]
- RNA-seq results, gene HYLS1 (HYLS1 expression in hepatocytes): −0.16
- RNA-seq results, gene ID1 (ID1 expression in hepatocytes): −0.69
- RNA-seq results, gene IDH1 (IDH1 expression in hepatocytes): 0.19
- RNA-seq results, gene IDH2 (IDH2 expression in hepatocytes): 0
- RNA-seq results, gene IDUA (IDUA expression in hepatocytes): 0.34
- RNA-seq results, gene IFIH1 (IFIH1 expression in hepatocytes): −0.06
- RNA-seq results, gene IFNAR2 (IFNAR2 expression in hepatocytes): 0.01
- RNA-seq results, gene IFT27 (IFT27 expression in hepatocytes): 0.27
- RNA-seq results, gene IFT80 (IFT80 expression in hepatocytes): −0.41
- RNA-seq results, gene IFT122 (IFT122 expression in hepatocytes): −0.16
- RNA-seq results, gene IFT140 (IFT140 expression in hepatocytes): 0.27
- RNA-seq results, gene IFT172 (IFT172 expression in hepatocytes): 0.16
- RNA-seq results, gene IGFALS (IGFALS expression in hepatocytes): 0.11
- RNA-seq results, gene IKBKG (IKBKG expression in hepatocytes): 0.3
- RNA-seq results, gene IL1RN (IL1RN expression in hepatocytes): 0.21
- RNA-seq results, gene IL2RG (IL2RG expression in hepatocytes): 0.6
- RNA-seq results, gene INSR (INSR expression in hepatocytes): 0.28
- RNA-seq results, gene INVS (INVS expression in hepatocytes): −0.03
- RNA-seq results, gene ISYNA1 (ISYNA1 expression in hepatocytes): −0.17
- RNA-seq results, gene ITGB3 (ITGB3 expression in hepatocytes): 0.27
- RNA-seq results, gene IYD (IYD expression in hepatocytes): −0.02
- RNA-seq results, gene JAG1 (JAG1 expression in hepatocytes): −0.1
- RNA-seq results, gene JAK2 (JAK2 expression in hepatocytes): −0.14
- RNA-seq results, gene KCTD7 (KCTD7 expression in hepatocytes): 0.11
- RNA-seq results, gene KCTD11 (KCTD11 expression in hepatocytes): −0.21
- RNA-seq results, gene KHK (KHK expression in hepatocytes): 0.03
- RNA-seq results, gene KIAA0586 (KIAA0586 expression in hepatocytes): −0.2
- RNA-seq results, gene KMT2D (KMT2D expression in hepatocytes): −0.05
- RNA-seq results, gene KPTN (KPTN expression in hepatocytes): 0.22
- RNA-seq results, gene KRIT1 (KRIT1 expression in hepatocytes): −0.1
- RNA-seq results, gene KRT18 (KRT18 expression in hepatocytes): −0.47
- RNA-seq results, gene KYNU (KYNU expression in hepatocytes): 0.16
- RNA-seq results, gene LAMB2 (LAMB2 expression in hepatocytes): 0.01
- RNA-seq results, gene LCAT (LCAT expression in hepatocytes): 0.11
- RNA-seq results, gene LDHB (LDHB expression in hepatocytes): −0.34
- RNA-seq results, gene LDLR (LDLR expression in hepatocytes): 0.24
- RNA-seq results, gene LDLRAP1 (LDLRAP1 expression in hepatocytes): 0.2
- RNA-seq results, gene LIPC (LIPC expression in hepatocytes): −0.29
- RNA-seq results, gene LIPT1 (LIPT1 expression in hepatocytes): −0.12
- RNA-seq results, gene LMNB2 (LMNB2 expression in hepatocytes): 0.14
- RNA-seq results, gene LPA (LPA expression in hepatocytes): 0.07
- RNA-seq results, gene LPIN1 (LPIN1 expression in hepatocytes): 0.22
- RNA-seq results, gene LPIN2 (LPIN2 expression in hepatocytes): 0.1
- RNA-seq results, gene LRBA (LRBA expression in hepatocytes): −0.32
- RNA-seq results, gene LRP5 (LRP5 expression in hepatocytes): 0.15
- RNA-seq results, gene LYRM4 (LYRM4 expression in hepatocytes): 0.19
- RNA-seq results, gene LYST (LYST expression in hepatocytes): −0.14
- RNA-seq results, gene MAN1A1 (MAN1A1 expression in hepatocytes): −0.26
- RNA-seq results, gene MAN2B1 (MAN2B1 expression in hepatocytes): 0.13
- RNA-seq results, gene MAOB (MAOB expression in hepatocytes): −0.16
- RNA-seq results, gene MAT1A (MAT1A expression in hepatocytes): 0.3
- RNA-seq results, gene MBL2 (MBL2 expression in hepatocytes): −0.47
- RNA-seq results, gene MCCC1 (MCCC1 expression in hepatocytes): 0.01
- RNA-seq results, gene MCCC2 (MCCC2 expression in hepatocytes): −0.2
- RNA-seq results, gene MCM6 (MCM6 expression in hepatocytes): −0.05
- RNA-seq results, gene MEN1 (MEN1 expression in hepatocytes): 0.15
- RNA-seq results, gene MET (MET expression in hepatocytes): −0.2
- RNA-seq results, gene MGAT2 (MGAT2 expression in hepatocytes): 0.09
- RNA-seq results, gene MKS1 (MKS1 expression in hepatocytes): 0.17
- RNA-seq results, gene MLH1 (MLH1 expression in hepatocytes): −0.06
- RNA-seq results, gene MMAA (MMAA expression in hepatocytes): −0.35
- RNA-seq results, gene MMAB (MMAB expression in hepatocytes): 0.27
- RNA-seq results, gene MMADHC (MMADHC expression in hepatocytes): −0.24
- RNA-seq results, gene MOCS1 (MOCS1 expression in hepatocytes): 0.13
- RNA-seq results, gene MOGAT2 (MOGAT2 expression in hepatocytes): −0.04
- RNA-seq results, gene MOGS (MOGS expression in hepatocytes): 0.24
- RNA-seq results, gene MPZ (MPZ expression in hepatocytes): 0.41
- RNA-seq results, gene MRPL3 (MRPL3 expression in hepatocytes): −0.06
- RNA-seq results, gene MTHFR (MTHFR expression in hepatocytes): 0.35
- RNA-seq results, gene MTM1 (MTM1 expression in hepatocytes): −0.13
- RNA-seq results, gene MTO1 (MTO1 expression in hepatocytes): −0.03
- RNA-seq results, gene MTR (MTR expression in hepatocytes): −0.08
- RNA-seq results, gene MTRR (MTRR expression in hepatocytes): −0.2
- RNA-seq results, gene MTTP (MTTP expression in hepatocytes): −0.29
- RNA-seq results, gene MVK (MVK expression in hepatocytes): 0.29
- RNA-seq results, gene MYH9 (MYH9 expression in hepatocytes): 0.02
- RNA-seq results, gene MYO5B (MYO5B expression in hepatocytes): 0.2
- RNA-seq results, gene NAGS (NAGS expression in hepatocytes): 0.46
- RNA-seq results, gene NARS2 (NARS2 expression in hepatocytes): −0.14
- RNA-seq results, gene NAT2 (NAT2 expression in hepatocytes): −0.1
- RNA-seq results, gene NBAS (NBAS expression in hepatocytes): −0.22
- RNA-seq results, gene NCF2 (NCF2 expression in hepatocytes): 0.47
- RNA-seq results, gene NEK1 (NEK1 expression in hepatocytes): 0.1
- RNA-seq results, gene NEK8 (NEK8 expression in hepatocytes): 0.29
- RNA-seq results, gene NEU1 (NEU1 expression in hepatocytes): 0.51
- RNA-seq results, gene NFKB2 (NFKB2 expression in hepatocytes): 0.12
- RNA-seq results, gene NFKBIA (NFKBIA expression in hepatocytes): −0.06
- RNA-seq results, gene NFU1 (NFU1 expression in hepatocytes): −0.04
- RNA-seq results, gene NGLY1 (NGLY1 expression in hepatocytes): −0.07
- RNA-seq results, gene NHP2 (NHP2 expression in hepatocytes): 0.21
- RNA-seq results, gene NME1 (NME1 expression in hepatocytes): 0.06
- RNA-seq results, gene NOD2 (NOD2 expression in hepatocytes): 0.33
- RNA-seq results, gene NOP10 (NOP10 expression in hepatocytes): 0.2
- RNA-seq results, gene NOTCH1 (NOTCH1 expression in hepatocytes): 0.16
- RNA-seq results, gene NOTCH2 (NOTCH2 expression in hepatocytes): −0.03
- RNA-seq results, gene NPC1 (NPC1 expression in hepatocytes): 0.3
- RNA-seq results, gene NR1H4 (NR1H4 expression in hepatocytes): 0.22
- RNA-seq results, gene NUBPL (NUBPL expression in hepatocytes): −0.06
- RNA-seq results, gene NUDT7 (NUDT7 expression in hepatocytes): −0.23
- RNA-seq results, gene NUDT12 (NUDT12 expression in hepatocytes): −0.17
- RNA-seq results, gene OAT (OAT expression in hepatocytes): 0.1
- RNA-seq results, gene OPA3 (OPA3 expression in hepatocytes): 0.03
- RNA-seq results, gene OTC (OTC expression in hepatocytes): −0.18
- RNA-seq results, gene PAF1 (PAF1 expression in hepatocytes): 0.09
- RNA-seq results, gene PAH (PAH expression in hepatocytes): 0.05
- RNA-seq results, gene PANK2 (PANK2 expression in hepatocytes): −0.22
- RNA-seq results, gene PAOX (PAOX expression in hepatocytes): 0.16
- RNA-seq results, gene PC (PC expression in hepatocytes): 0.17
- RNA-seq results, gene PCCA (PCCA expression in hepatocytes): 0.13
- RNA-seq results, gene PCK2 (PCK2 expression in hepatocytes): 0.46
- RNA-seq results, gene PCSK9 (PCSK9 expression in hepatocytes): 0.26
- RNA-seq results, gene PCYT1A (PCYT1A expression in hepatocytes): 0.09
- RNA-seq results, gene PDGFRA (PDGFRA expression in hepatocytes): −0.43
- RNA-seq results, gene PDP1 (PDP1 expression in hepatocytes): −0.04
- RNA-seq results, gene PEPD (PEPD expression in hepatocytes): 0.32
- RNA-seq results, gene PEX11A (PEX11A expression in hepatocytes): 0.02
- RNA-seq results, gene PEX12 (PEX12 expression in hepatocytes): 0.11
- RNA-seq results, gene PEX14 (PEX14 expression in hepatocytes): 0.15

— patent publication US20210254056A1, “IDENTIFICATION AND TARGETED MODULATION OF GENE SIGNALING NETWORKS” (CAMP4 THERAPEUTICS CORPORATION, priority 2017, published 2021)
